Data reported in patent US20090093538A1, “Method for treating cancer” (priority 2007, published 2009).
“Also recorded” adds a separate entry of the source.

What was measured:
[1] = tested on: Hs294T (or MDA-MB-435) cells; experiment: Affymetrix transcriptional profiling; format: cell-based, human; conditions: Hs294T cells; NAC 5 mM 30 minutes prior to Compound 1 100 nM; 6 hours
Procedure: RNA was isolated from the cells 6 hours after treatment using the RNeasy kit according to the manufacturers instructions (Qiagen Cat. # 71404) and RNA quality was confirmed by spectrophotometric examination. cDNA was synthesized using the One-Cycle cDNA Synthesis Kit (Affymetrix Cat. # 900431) according to the manufacturers instructions. cDNA was labeled using the GeneChip IVT Labeling Kit (Affymetrix Cat. #900449) and analyzed in duplicate on the Affymetrix Human Genome U133Plus 2.0 gene chip array according to standard Affymetrix protocols. Data sheets from the Affymetrix Gene Chip Scanner 3000 were imported into Microsoft Excel and filtered by the following criteria: greater than or equal to 1.5 fold increase, greater than or equal to 0.4SE between replicates; and 50 (low stringency) or 500 (high stringency) for the lowest signal.
NAC is the rate-limiting amino acid for the production of the antioxidant glutathione. Addition of NAC to cells increases the levels of endogenous glutathione which in turn blocks oxidative stress and ROS generation. […] RNA was isolated from the cells 6 hours after treatment and Affymetrix analysis was performed as above.

MDA-MB-435 cells = experiment: Cell viability (Cell Counting Kit-8); format: cell-based, human; conditions: […] NAC, 500 nM Compound 1, 72 hours
Procedure: The cells were further cultured at 37° C. for 72 hours and cell viability was measured with Cell Counting Kit-8 (Dojindo Laboratories, Cat# CK04).

Ramos cells [2] = experiment: Apoptosis, Annexin V / propidium iodide FACS; format: cell-based; conditions: 5 mM NAC
Procedure: (§1) To confirm that the ability of NAC to block Compound 1-induced cell death was not cell-line specific, we examined the role of oxidative stress in two additional cell lines by FAC analysis. RAMOS and HSB2 cells (ATCC) were seeded in 6-well plates at 1×10^6 cells/well/4 mL and incubated at 37° C. for 4 hours. […] After incubation the cells were stained with Annexin V and propidium iodide (Vybrant Apoptosis assay kit, Cat# V13241, Invitrogen, Molecular Probes) for measuring apoptotic cells by FACS analysis.

HSB2 cells [3] = experiment: Apoptosis, Annexin V / propidium iodide FACS; format: cell-based; conditions: for relative levels of apoptotic cells: agent alone, without Compound 1
Procedure: as §1
The cells were harvested and stained with Annexin V and propidium iodide for measuring apoptotic cells by FACS analysis.

Hsp70 [4] = experiment: Hsp70 RNA induction, quantitative PCR, Hs294T cells; format: cell-based, human; conditions: Compound 1 100 nM, 6 hours
Procedure: […] 500 ng of RNA from each sample was used for cDNA synthesis using iScript cDNA Synthesis Kit (Biorad, Cat# 170-8891). 1 uL of cDNA mixture was used with the iQ SYBR Green Supermix (Biorad, Cat# 170-8882) to perform quantitative PCR in an iCycler machine (Biorad) using standard protocols. QPCR for each sample/time point was performed in duplicate. The following primers for inducible human Hsp70 and gapdh were used:
Ct values were obtained from the iCycler program and used in an equation (2^−ΔΔCT) for determining the amount of target relative to gapdh expression. This compares the relative expression of Hsp70 to the corresponding levels of gapdh in each sample. Duplicate wells were averaged and graphed with their corresponding standard deviation.
Activation of HSF-1 by oxidative stress has been reported in the literature to require p38 kinase signaling in some cell lines.

Ramos cells [5] = experiment: ROS generation, carboxy-H2DCFDA probe, flow cytometry; format: cell-based
Procedure: In these experiments, we monitored the production of ROS using the cell permeable Carboxy-H2DCFDA probe. When this probe is oxidized by ROS, it emits a green fluorescence that can be detected using flow cytometry or fluorescent microscopy. […] 25 μM carboxy-H2DCFDA (Invitrogen. C400) working solution was added to cover the cells, and the cells were incubate for 30 minutes at 37° C., protected from light. The cells were gently washed three times in warm HBSS/Ca/Mg. ROS levels, as determined by fluorescence intensity, were determined by flow cytometry (excitation at 495 nm, emission at 529 nm).
(§2) Tiron is a direct scavenger of ROS and is a potent inhibitor of oxidative stress.
Ramos cells were treated with elesclomol (500 nM) for the indicated times then washed gently once with warm HBSS/Ca/Mg (Invitrogen Carlsbad, Calif. Cat# 14025). 25 μM carboxy-H2DCFDA (Invitrogen Cat #C400) working solution was added to cover the cells and they were incubated for 30 minutes at 37° C., protected from light. The cells were gently washed three times in warm HBSS/Ca/Mg. ROS levels (fluorescence intensity) were determined by flow cytometry (excitation at 495 nm, emission at 529 nm) using a Becton Dickinson FACSCalibur equipped with CellQuest Pro software. Data is plotted as percent of elesclomol-treated cells with DCFDA fluorescence relative to DMSO (control) treated cells (see FIG. 49).

[6] = in vivo
[7] = tested on: Stage 1V metastatic melanoma
Procedure: A phase II clinical trial was conducted in patients that had Stage 1V metastatic melanoma patients.
Patients were treated until progression of the disease. […] The tumor assessments were performed at baseline, Cycle 2, and every other Cycle thereafter.

MSK1 = MSK1 phosphorylation, Western blot, MDA-MB-435 cells; format: cell-based, human; conditions: 20 μM SB203580, 0.1 or 0.5 μM Compound 1
Procedure: (§3) After treatment the cells were lysized and used for Western blot analysis.
Samples were run on a SDS-PAGE gel and proteins were transferred onto a nitrocellulose membrane by a semi-dry transfer. Nitrocellulose was blocked with 5% skim milk in TBS with 0.5% Tween at room temperature for 1 hour and then probed with anti-p-MSK1 (Thr581) (#9595, Cell Signaling) antibody. The nitrocellulose was then probed with secondary antibodies, HRP-conjugated goat anti-rabbit IgG and HRP-conjugated horse anti-mouse IgG (#7074, #7076, Cell Signaling). LumiGLO reagent, 20× Peroxide (#7003, Cell Signaling) was used to visualize gel (see FIG. 36).
(§4) Samples were run on a SDS-PAGE gel and proteins were transferred onto a nitrocellulose membrane by a semi-dry transfer. Nitrocellulose was blocked with 5% skim milk in TBS with 0.5% Tween at room temperature for 1 hour and then probed with anti-p-MSK1 (Thr581) (#9595, Cell Signaling) antibody. Tubulin was used as a normalization control and was probed with Anti-Tubulin (T9026, Sigma) antibody.

MAPKAPK-2 = MAPKAPK-2 phosphorylation, Western blot, CEM and CV-1 cells; format: cell-based; conditions: 20 μM SB203580, 0.1 or 0.5 μM Compound 1
Procedure: as §3
as §4, with “anti-p-MAPKAPK-2 (Thr334) (#3041,” for “anti-p-MSK1 (Thr581) (#9595,”

HSB2 cells [8] = experiment: Apoptosis, Annexin V / propidium iodide FACS; format: cell-based; conditions: p38 inhibitor 20 μM plus Compound 1 0.2 μM
Hsp70 [9] = experiment: Hsp70 induction by Compound 1 in the presence of Tiron; format: cell-based; conditions: Tiron (FIG. 45)
Description: as §2

[10] = tested on: cytochrome c and caspase 3; experiment: Apoptotic markers, Western blot, Ramos cells; format: cell-based; conditions: 100 nM
Procedure: Ramos cells were plated for 3 hours then treated with 100 nM elesclomol for the indicated times. To determine cytochrome c levels in the cytoplasm and mitochondria (a) Ramos cells were fractionated using the method detailed in (Hase et al, Journal of Biol. Chem. Vol. 277, pp. 46950-58, 2002) and western blots were probed with Cytochrome C primary antibody (BD Pharmingen, clone 7H8.2; C12). All Western blots were probed with secondary antibodies conjugated to HRP (Cell Signaling) and visualized using Lumiglo (Cell Signaling) peroxide reagents. Images were captured from the Kodak Image Station 440. For Caspase 3 analysis (b), whole cell lysates were isolated using 1× cell lysis buffer (Cell Signaling, Danvers, Mass.) plus protease inhibitors (Calbiochem, San Diego, Calif.). 30 ug of protein was run on a 4-12% Nupage gel (Invitrogen) and immunoblotted using standard procedures. The blots were probed with Caspase 3 antibody (9662) and cleaved Caspase 3 primary antibodies (9661) both from Cell Signaling.

[11] = RECIST, Efficacy Sample, patients (percent)

CC(=O)N[C@@H](CS)C(=O)O [NAC, N-acetyl-cysteine, reference compound]
effect of NAC on genes induced by Compound 1 [1]: inhibited the genes most robustly induced by Compound 1
block of Compound 1-induced cell death (MDA-MB-435 cells): completely blocked the ability of Compound 1 to induce cell death
inhibition of Compound 1-induced early apoptotic signaling (Ramos cells [2]): completed inhibited early apoptotic signaling
early apoptotic cells (HSB2 cells [3]; NAC 5 mM alone): 11%
relative levels of apoptotic cells (HSB2 cells [3]): little or no effect
inhibition of Hsp70 induction by Compound 1 (Hsp70 [4]; 5 mM NAC): complete inhibition in Hsp70 induction; also recorded: completely inhibited
block of ROS generation by Compound 1 (Ramos cells [5]; 1.0 mM or 10 mM NAC 1 hour prior to Compound 1 0.5 μM): almost completely blocked the generation of ROS by Compound 1

CC(=O)O[C@H]1C(=O)[C@@]2(C)[C@H]([C@H](OC(=O)c3ccccc3)[C@]3(O)C[C@H](OC(=O)[C@H](O)[C@@H](NC(=O)c4ccccc4)c4ccccc4)C(C)=C1C3(C)C)[C@]1(OC(C)=O)CO[C@@H]1C[C@@H]2O [Paclitaxel, paclitaxel]
dose limiting toxicities [6]: dose limiting toxicities occurred in a single patient in each of the top three dose levels
CR + PR (95% CI) ([7]; RECIST, Efficacy Sample): 3.7% (0.1%,19.0%)
Best Overall Response: Complete Response (CR) [7, 11]: 0
Best Overall Response: Partial Response (PR) [7, 11]: 1 (3.7%)
Best Overall Response: Progressive Disease (PD) [7, 11]: 16 (59.3%)
number of patients with partial response ([7]; Table 5): 1 patient
patients with progressive disease ([7]; Table 5): 59.3%
patients with stable disease ([7]; Table 5): 37%

C[S+]([O-])c1ccc(-c2nc(-c3ccncc3)c(-c3ccc(F)cc3)[nH]2)cc1 (stereo not drawn) [SB203580, reference compound]
relative levels of apoptotic cells (HSB2 cells [3]): little or no effect
inhibition of Hsp70 induction by Compound 1 (Hsp70 [4]; p38 inhibitor 20 uM): robust decrease in Hsp70 induction
block of Compound 1 induced phosphorylation of MSK1 (MSK1): blocked
block of Compound 1 induced phosphorylation of MAPKAPK-2 (MAPKAPK-2): blocked
effect of p38 inhibitor on apoptosis induced by Compound 1 (HSB2 cells [8]): did not effect induction of apoptosis by Compound 1

O=S(=O)(O)c1cc(O)c(O)c(S(=O)(=O)O)c1 [Tiron, reference compound]
block of ROS generation by Compound 1 (Ramos cells [5]; 500 mM Tiron 1 hour prior to Compound 1 0.5 μM, 24 hours): blocked the ability of Compound 1 to generate ROS
block of induction of Hsp70 by Compound 1 (Hsp70 [9]): blocks the induction of Hsp70 by Compound 1

CN(NC(=O)CC(=O)NN(C)C(=S)c1ccccc1)C(=S)c1ccccc1 [elesclomol]
accumulation of ROS (Ramos cells [5]; 500 nM, time course): induces accumulation of ROS in cells shortly after drug treatment
time post treatment at which cytochrome c and caspase 3 start to be activated [10]: 6 h
